One data set in a line: MTT viability assay. In kind it is cell-based. To be noted: human, RPMI-8226 lymphoblasts, RPMI-8226 cells, read-out: EC50 cytotoxicity (MTT viability). As to the method:
RPMI-8226 lymphoblasts (ATTC #CCL-155) were used to assess the cytotoxicity of tested compounds. […] Dilution series of tested inhibitors were prepared as 10x stock solutions in PBS and 10 μL was added to cells and incubated under a 5% CO2 atmosphere at 37 °C, for 2 days. Following incubation, 10 μL of MTT reagent (3-(4,5-dimethylthiazol-2-yl)-2,5-diphenyltetrazolium bromide, 5 mg/mL in PBS, Sigma Aldrich) was added to each well and incubated for 90 min, 37 °C, 5% CO2. […]

The target in a further data set is T1, HDAC10 (Homo sapiens, UniProt Q969S8).
T1 construct: HDAC10 1 – 667 Open Biosystems; Strep-FLAG-HALO (N); made in house; host or cells: HEK293/T17
T1 sequence (Q969S8 1-667): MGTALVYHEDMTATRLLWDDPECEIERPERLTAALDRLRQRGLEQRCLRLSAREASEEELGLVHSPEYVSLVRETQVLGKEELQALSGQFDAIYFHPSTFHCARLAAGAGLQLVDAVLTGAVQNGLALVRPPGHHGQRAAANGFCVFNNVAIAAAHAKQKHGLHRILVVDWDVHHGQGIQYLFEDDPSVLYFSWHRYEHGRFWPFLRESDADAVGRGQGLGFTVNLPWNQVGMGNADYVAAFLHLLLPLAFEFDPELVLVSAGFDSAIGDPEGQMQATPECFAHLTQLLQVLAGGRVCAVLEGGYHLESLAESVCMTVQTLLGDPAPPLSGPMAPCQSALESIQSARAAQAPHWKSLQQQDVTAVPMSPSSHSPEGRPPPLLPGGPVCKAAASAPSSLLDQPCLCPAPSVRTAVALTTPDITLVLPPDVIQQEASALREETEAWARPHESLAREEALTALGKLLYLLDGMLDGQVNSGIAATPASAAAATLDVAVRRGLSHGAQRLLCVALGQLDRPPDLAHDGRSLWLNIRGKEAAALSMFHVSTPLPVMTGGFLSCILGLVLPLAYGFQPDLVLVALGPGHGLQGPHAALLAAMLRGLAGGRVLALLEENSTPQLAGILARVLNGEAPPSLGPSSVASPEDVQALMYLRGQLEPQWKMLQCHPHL
Description: In vitro deacetylation assay, HDAC10 (fluorescein-labeled N8-acetylspermidine, RP-HPLC). Particulars: for pIC50: purified human HDAC10, read-out: IC50 HDAC10; for SI (HD6/HD10): ratio of IC50 HDAC10 divided by IC50 HDAC6. In kind it is biochemical.

For a further data set, the target named is HDAC1-nanoLuc (Homo sapiens, UniProt Q13547). Description: nanoBRET target engagement assay, HDAC1. The format is cell-based. Particulars: HEK293T/17 cells stably expressing HDAC1-nanoLuc, 2 h. For orientation: Bioluminescence resonance energy transfer reports proximity on the nanometre scale.
Chain of HDAC1-nanoLuc (Q13547 whole entry): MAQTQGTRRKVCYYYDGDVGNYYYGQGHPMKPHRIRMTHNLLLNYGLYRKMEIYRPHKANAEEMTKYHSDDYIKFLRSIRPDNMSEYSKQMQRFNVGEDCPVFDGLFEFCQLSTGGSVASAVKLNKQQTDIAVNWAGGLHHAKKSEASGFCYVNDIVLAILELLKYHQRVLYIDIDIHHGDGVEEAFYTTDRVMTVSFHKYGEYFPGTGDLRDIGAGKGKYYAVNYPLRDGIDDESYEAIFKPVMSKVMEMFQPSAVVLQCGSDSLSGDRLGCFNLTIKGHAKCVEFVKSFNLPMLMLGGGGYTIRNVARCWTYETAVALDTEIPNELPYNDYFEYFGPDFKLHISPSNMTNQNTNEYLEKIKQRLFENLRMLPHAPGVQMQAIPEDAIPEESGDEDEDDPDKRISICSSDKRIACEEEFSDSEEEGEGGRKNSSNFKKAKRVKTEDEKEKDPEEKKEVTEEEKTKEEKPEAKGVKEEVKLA
The target of a further data set is T2, HDAC6-nanoLuc (Homo sapiens, UniProt Q9UBN7).
T2 sequence (Q9UBN7 1-1215): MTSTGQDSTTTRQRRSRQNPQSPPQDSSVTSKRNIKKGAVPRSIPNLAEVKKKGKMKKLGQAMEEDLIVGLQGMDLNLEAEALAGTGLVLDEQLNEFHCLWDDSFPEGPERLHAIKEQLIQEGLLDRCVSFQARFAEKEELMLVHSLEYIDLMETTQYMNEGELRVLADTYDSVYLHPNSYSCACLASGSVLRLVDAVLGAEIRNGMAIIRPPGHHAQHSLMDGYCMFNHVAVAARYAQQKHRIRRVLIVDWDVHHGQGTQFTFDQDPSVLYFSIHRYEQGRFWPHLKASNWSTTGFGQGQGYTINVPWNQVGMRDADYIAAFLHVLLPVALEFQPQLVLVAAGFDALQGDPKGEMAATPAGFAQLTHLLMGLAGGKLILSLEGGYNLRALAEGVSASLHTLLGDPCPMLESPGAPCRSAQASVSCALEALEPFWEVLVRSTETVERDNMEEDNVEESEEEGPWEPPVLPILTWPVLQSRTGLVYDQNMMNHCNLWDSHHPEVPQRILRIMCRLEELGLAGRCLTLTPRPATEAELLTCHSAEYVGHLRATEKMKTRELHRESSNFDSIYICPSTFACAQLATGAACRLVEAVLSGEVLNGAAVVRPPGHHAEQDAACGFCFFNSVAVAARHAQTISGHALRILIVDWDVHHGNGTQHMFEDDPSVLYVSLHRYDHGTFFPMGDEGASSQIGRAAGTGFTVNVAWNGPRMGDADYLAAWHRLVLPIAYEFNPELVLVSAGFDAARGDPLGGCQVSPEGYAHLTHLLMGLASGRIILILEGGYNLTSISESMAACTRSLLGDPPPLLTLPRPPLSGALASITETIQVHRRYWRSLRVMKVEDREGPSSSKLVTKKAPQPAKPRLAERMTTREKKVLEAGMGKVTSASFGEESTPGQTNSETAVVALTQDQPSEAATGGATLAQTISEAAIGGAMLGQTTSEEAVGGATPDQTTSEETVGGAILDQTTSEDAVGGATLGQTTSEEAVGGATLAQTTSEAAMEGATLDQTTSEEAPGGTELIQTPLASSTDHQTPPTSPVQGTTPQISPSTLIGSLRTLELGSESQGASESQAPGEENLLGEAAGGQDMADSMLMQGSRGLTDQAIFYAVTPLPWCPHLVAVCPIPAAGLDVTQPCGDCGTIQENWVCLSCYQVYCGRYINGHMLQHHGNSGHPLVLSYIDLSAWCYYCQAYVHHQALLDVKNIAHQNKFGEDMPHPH
The experiment in a line: nanoBRET target engagement assay, HDAC6. To be noted: HEK293T/17 cells stably expressing HDAC6-nanoLuc, 2 h. The format is cell-based.

The next data set has as its target T3, HDAC1 (Homo sapiens, UniProt Q13547).
T3 construct: HDAC1 1-482 Addgene; Strep-FLAG-HALO (N); made in house; host or cells: HEK293/T17
Description: In vitro deacetylation assay, HDAC1 (RHKK substrate). The format is biochemical. To be noted: for pIC50: purified human HDAC1, RHK[AcK]-AMC (RHKK) substrate; for SI (HD6/HD1) RHKK: ratio of IC50 HDAC1 (RHKK) divided by IC50 HDAC6.

pEC50, pIC50: −log10 of the molar value. A value given as a limit tells only on which side of the number the result lay.

Two molecules from article PMC10003107, “Selectivity of Hydroxamate- and Difluoromethyloxadiazole-Based Inhibitors of Histone Deacetylase 6 In Vitro and in Cells” (International Journal of Molecular Sciences, 2023) can be followed below.

T3 sequence (Q13547 whole entry): as the sequence (Q13547 whole entry) above

Turning to `O=C(NO)c1cnc(NC2(c3cccc(F)c3)CCCCC2)nc1` [ACY-775], the EC50 at 48 h in “MTT viability assay” came to 8.6 µM. On HDAC10, the negative logarithm of the IC50 (pIC50) was 7.47 and the “SI (HD6/HD10)” value is given as 30.6. Also, the pEC50 at HDAC1-nanoLuc was less than 4.30. The molecule further had a negative logarithm of the EC50 (pEC50) at HDAC6-nanoLuc of 6.57. Further, on HDAC1, the pIC50 was 4.66 and the “SI (HD6/HD1) RHKK” value is given as 19,550.

Turning to `CS(=O)(=O)N(Cc1ccc(-c2nnc(C(F)F)o2)cn1)c1cccc(Cl)c1` [compound 7, N-(3-chlorophenyl)-N-((5-(5-(difluoromethyl)-1,3,4-oxadiazol-2-yl)pyridin-2-yl)methyl)methanesulfonamide], the 50% effective concentration (EC50) at 48 h in the data set “MTT viability assay” is greater than 50 µM. On HDAC10, the pIC50 is less than 4.30 and the “SI (HD6/HD10)” value is recorded as >25,000. On HDAC1-nanoLuc, the negative logarithm of the EC50 (pEC50) is less than 4.30. For the same molecule, the pEC50 on HDAC6-nanoLuc was 6.80. Further, at HDAC1, the pIC50 is less than 4.30 and the “SI (HD6/HD1) RHKK” value was >25,000.

In general, EC50 refers to the concentration at which the effect is half-maximal. The pIC50 is −log10 of the IC50, conventionally taken in molar units. One may read the pEC50 as −log10 of the EC50, conventionally taken in molar units. Read a low pEC50 as a large EC50.
